The values below come from patent publication US20260144752A1, “Multilamellar Vesicles and Methods and Uses Thereof” (ChromoLogic LLC, priority 2022, published 2026).

The test system of one series is γ-H2AX. Put plainly: IR-induced DNA double strand breaks, γ-H2AX immunohistochemistry in irradiated cells. Type of series: cell-based. As to conditions: cells treated prior to irradiation of 0 Gy and 5 Gy, FIGS. 4A-4B. From the text:
In various embodiments JP4-039-MLVs have the ability to reduce IR-induced DNA double strand breaks (DSBs). IR induces DNA damage resulting in double strand breaks that can result in mitotic failure and cell death. Secondary oxidative stress induces further DNA damage. In response to double strand breaks, the histone H2AX is rapidly phosphorylated, producing γ-H2AX, a standard biomarker of DNA damage. […] FIGS. 4A-4B illustrate exemplary data from an embodiment showing the ability to reduce DNA DSBs. Specifically, FIG. 4A provides confocal images of cells treated with DMSO (control), JP4-039, and JP4-039-MLVs prior to irradiation of 0 Gy and 5 Gy. Cell nuclei are stained with DAPI (blue) and γ-H2AX is visualized by immunohistochemistry (green), while FIG. 4B illustrates relative frequency of γ-H2AX+ cells by counting blue puncta and green puncta.

The conditions of series [1]: cited from earlier work.
For series [2] the following is noted: cited from earlier work. The source holds these as a separate data set.
The test system of series [3] is mitochondrial membrane permeability. The series is described as follows: Mitochondrial membrane permeability in cells exposed to IR. The note with it: cells exposed to 10 Gy IR, FIG. 5B. The class given is cell-based. From the text: (§1) In various embodiments JP4-039-MLV nanoparticles protect cells from IR-induced oxidative stress. In addition to DNA damage, IR-induced oxidative stress can result in lipid peroxidation, mitochondrial membrane permeability, and an increase in ROS concentration. FIGS. 5A-5C provide exemplary data of an embodiment showing reduction of IR-induced cellular dysregulation.

For a further series, the system named is ROS. Put plainly: ROS levels in cells exposed to IR. The note with it: cells exposed to 5 Gy IR, FIG. 5C. Type of series: cell-based.
From the text: as §1

For series [4] the following is noted: stated for comparison; cited from earlier work.
Series [5] has as its system γ-H2AX+ intestinal crypt cells. The note with it: mice, 9.25 Gy TBI; cited from earlier work.
The test system of a further series is lipid peroxidation. Put plainly: Lipid peroxidation in cells exposed to IR. The class given is cell-based. As to conditions: cells exposed to 5 Gy IR, FIG. 5A.
From the text: as §1

JP4-039: the “protection from IR-induced DNA damage (relative frequency of γ-H2AX+ cells)” value in the series with γ-H2AX is listed as “protected cells from IR-induced DNA damage”. Further, the “survival following TBI” value in series [1] (hematopoietic- or gastrointestinal-ARS-inducing doses of TBI) was “increasing survival”. Also, the “time window of effectiveness relative to irradiation” value in series [1] (in vivo radiation survival studies) is listed as “effective 24 h prior to 72 h after irradiation”. Besides, the “solubility in an aqueous environment” value in series [2] is reported as “very low solubility”. For the same substance, the “levels of mitochondrial membrane permeability” value in series [3] is “reduced levels of mitochondrial membrane permeability”. For the same substance, the ROS levels result in the series on ROS is reported as “reduced ROS levels”. In addition, the in vivo half-life entry in series [4] is given as “approximately 6 hours”. Also, the “number of γ-H2AX+ intestinal crypt cells” value in series [5] is listed as “reduce the number of γ-H2AX+ intestinal crypt cells”. Further, the “levels of lipid peroxidation” value with lipid peroxidation is on record as “reduce levels of lipid peroxidation”.
